Consider two compounds from PMC8453936, “Development and in vitro Profiling of Dual FXR/LTA4H Modulators” (Chemmedchem, 2021).

The target of assay [1] is T1, recombinant human sEH (Homo sapiens, UniProt P34913).
T1 construct: Human sEH full length protein was purified as described by Lukin et al; made in house; host or cells: E. coli BL21 (DE3)
T1 sequence (P34913 1-555): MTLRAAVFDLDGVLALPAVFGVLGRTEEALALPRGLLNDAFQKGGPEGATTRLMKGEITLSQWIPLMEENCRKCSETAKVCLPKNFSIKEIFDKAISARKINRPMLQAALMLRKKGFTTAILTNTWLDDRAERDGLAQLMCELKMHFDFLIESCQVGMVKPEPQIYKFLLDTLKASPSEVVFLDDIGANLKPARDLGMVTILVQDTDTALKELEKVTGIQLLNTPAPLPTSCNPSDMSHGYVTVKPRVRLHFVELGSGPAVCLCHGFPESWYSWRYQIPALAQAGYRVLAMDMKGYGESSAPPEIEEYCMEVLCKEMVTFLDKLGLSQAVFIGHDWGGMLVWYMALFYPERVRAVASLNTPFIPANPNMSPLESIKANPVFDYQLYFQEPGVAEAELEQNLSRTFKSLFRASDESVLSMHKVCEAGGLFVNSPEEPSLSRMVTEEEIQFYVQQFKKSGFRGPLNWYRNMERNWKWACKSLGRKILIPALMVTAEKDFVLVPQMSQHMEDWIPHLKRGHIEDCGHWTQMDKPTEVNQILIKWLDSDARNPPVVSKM
Description: sEH activity assay with PHOME as fluorogenic substrate. Conditions: mean±S.E.M., n=3. The class given is biochemical.

Assay [2] has as its target T2, full-length human FXR (Homo sapiens, UniProt Q96RI1).
T2 construct: coding for the full‐length human nuclear receptors FXR and RXRα; expressed in transfected cells; host or cells: HeLa
T2 sequence (Q96RI1 1-486): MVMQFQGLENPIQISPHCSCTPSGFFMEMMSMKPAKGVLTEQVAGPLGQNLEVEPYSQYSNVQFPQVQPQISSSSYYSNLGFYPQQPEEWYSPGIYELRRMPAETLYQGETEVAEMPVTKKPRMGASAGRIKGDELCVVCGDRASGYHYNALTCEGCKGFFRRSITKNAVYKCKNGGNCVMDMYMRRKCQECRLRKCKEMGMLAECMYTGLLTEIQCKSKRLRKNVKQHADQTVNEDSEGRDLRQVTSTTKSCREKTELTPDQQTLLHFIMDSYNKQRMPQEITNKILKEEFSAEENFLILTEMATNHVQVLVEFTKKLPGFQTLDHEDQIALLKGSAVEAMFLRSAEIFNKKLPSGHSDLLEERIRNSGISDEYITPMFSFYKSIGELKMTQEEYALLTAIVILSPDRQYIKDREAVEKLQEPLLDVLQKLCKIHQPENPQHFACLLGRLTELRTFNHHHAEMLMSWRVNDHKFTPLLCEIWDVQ
T2 sequence (P19793 1-462 partner): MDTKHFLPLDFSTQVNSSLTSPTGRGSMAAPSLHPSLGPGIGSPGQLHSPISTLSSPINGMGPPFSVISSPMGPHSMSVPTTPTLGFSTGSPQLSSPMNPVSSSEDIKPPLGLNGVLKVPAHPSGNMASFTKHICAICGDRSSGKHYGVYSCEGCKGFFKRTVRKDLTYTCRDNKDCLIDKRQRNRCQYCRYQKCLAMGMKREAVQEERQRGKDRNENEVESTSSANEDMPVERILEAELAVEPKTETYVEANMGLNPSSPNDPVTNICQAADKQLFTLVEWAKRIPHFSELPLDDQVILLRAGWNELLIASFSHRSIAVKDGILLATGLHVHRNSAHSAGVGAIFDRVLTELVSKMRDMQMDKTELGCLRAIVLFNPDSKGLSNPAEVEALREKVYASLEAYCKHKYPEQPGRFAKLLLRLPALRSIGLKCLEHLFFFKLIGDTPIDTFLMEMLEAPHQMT
Description: Full-length FXR:RXR reporter gene assay (BSEP promoter, HeLa, transiently transfected). The format is cell-based. Conditions: mean±S.E.M., n≥3. The method, then: Full‐length FXR:RXR reporter gene assay. HeLa cells were grown in DMEM high glucose supplemented with 10 % FCS, sodium pyruvate (1 mM), penicillin (100 U/mL) and streptomycin (100 μg/mL) at 37 °C and 5 % CO2 and seeded in 96‐well plates 24 h before transfection with a density of 8000 cells per well. 3.5 h before transfection, medium was changed to DMEM high glucose, supplemented with sodium pyruvate (1 mM), penicillin (100 U/mL), streptomycin (100 μg/mL) and 0.5 % charcoal‐stripped FCS. Cells were then transiently transfected with using the calcium phosphate transfection method with pGL3basic‐BSEP[26, 27] (containing a shortened construct of the promotor of the bile salt export protein (BSEP) cloned into the SacI/NheI cleavage site in front of the luciferase gene), pcDNA3‐hFXR[26] and pSG5‐hRXR[38] coding for the full‐length human nuclear receptors FXR and RXRα, and pRL‐SV40 (Promega) for normalization of transfection efficiency and cell growth. 16 h after transfection, medium was changed to DMEM high glucose, supplemented with sodium pyruvate (1 mM), penicillin (100 U/mL), streptomycin (100 μg/mL) and 0.5 % charcoal‐stripped FCS. 24 h after transfection, medium was changed to DMEM without phenol red, supplemented with sodium pyruvate (1 mM), penicillin (100 U/mL), streptomycin (100 μg/mL), L‐glutamine (2 mM) and 0.5 % charcoal‐stripped FCS, now additionally containing 0.1 % DMSO and the respective test compound or 0.1 % DMSO alone as untreated control. Each sample was tested in triplicate wells and each experiment was repeated independently at least three times. Following 24 h incubation with the test compounds, cells were assayed for luciferase activity using Dual‐Glo Luciferase Assay System (Promega) according to the manufacturer's protocol. Luminescence was measured with a Tecan Spark M luminometer (Tecan). Normalization of transfection efficiency and cell growth was done by division of firefly luciferase data by Renilla luciferase data multiplied by 1000 resulting in relative light units (RLU). Fold activation was obtained by dividing the mean RLU of the tested compound at a respective concentration by the mean RLU of untreated control. EC50 and standard error of the mean values were calculated with the mean fold activation values of at least three independent experiments with SigmaPlot 10.0 (Systat Software GmbH, Erkrath, Germany) using a four‐parameter logistic regression.

By IC50 is commonly meant the concentration that gives 50% inhibition. The EC50 is the concentration at which the effect is half-maximal. A higher EC50 goes with weaker potency. For `O=C(O)c1ccnc(NC(=O)c2ccc(OCCCc3ccccc3)cc2)c1` [compound 19, 2‐(4‐(3‐Phenylpropoxy)benzamido)isonicotinic acid], the IC50 in assay [1] (read-out: sEH inhibition IC50) was 68 µM. The “FXR efficacy (maximum FXR activation relative to 3 μM GW4064)” value in assay [2] (3 μM GW4064 = 100 % activation) is 21±1%. This compound also came in with an EC50 in assay [2] (full-length FXR reporter gene assay, BSEP promoter, HeLa) of 0.46 ± 0.08 µM.
Turning to `O=C(O)c1cccc(NC(=O)c2ccc(OCCCc3ccccc3)cc2)c1` [compound 8], the sEH inhibition in assay [1] (at 100 μM) is 6±1 % inhibition at 100 μM.
